In patent publication US12097262B2, “mTORC1 inhibitors” (THE REGENTS OF THE UNIVERSITY OF CALIFORNIA, priority 2014, dated 2024):
Where two headings read alike, the source gives them in different places.

Assays:
[1] = tested on: mTORC1 (pS6 S240/244, P-4EBP1); test: Western blot analysis in SNU-449 cells (E1010); type: cell-based, human; settings: 3 hours (FIG. 13B)
Description: FIGS. 13A-13B. FIG. 13A: MCF-7 cells were treated for 4 hours with E1035 and M1071 before harvesting. FIG. 13B: SNU-449 cells were treated with 3 hours with E1010 before harvesting. Cells were lysed and blotted for the indicated proteins. M1071 has the narrowest concentration range between mTORC1 and mTORC2 inhibition. The concentration range between mTORC1 and mTORC2 inhibition widens for E1035.
Cell Culture and Western Blot Analysis. Cells were grown in 6-well plates and treated with inhibitor at the indicated concentrations or with vehicle (0.1% DMSO). Treated cells were lysed, and lysates were resolved by SDS-PAGE, transferred to nitrocellulose and blotted. All antibodies were purchased from Cell Signaling Technology.

SNU-398 = test: Cell viability assay (CellTiter-Glo), SNU-398; type: cell-based, human; settings: for EC50: 72 h after compound treatment; for inhibition at 10 µM: read-out: % inhibition at 10 μM SNU-398, 10 μM
Description: (§1) The cells were grown in appropriate medium (vender recommended) supplemented with 10% heat-inactivated fetal bovine serum (FBS), in tissue culture dishes placed in a humidified incubator maintained at 37° C. in an atmosphere of 5% CO2 and 95% air.
(§2) Cell viability assay. Cells were seeded in a 96-multiwell plate at 3000-4000 cells per well in medium containing FBS and cells were incubated at 37° C. overnight. After 18-20 h, compounds in 10×DMSO solution (n=3) were added to the cells and were incubated for additional 3 days in a humidified incubator in an atmosphere of 5% CO2 and 95% air. After treatment of Cell Titer-Glo® luminescent cell viability assay reagent (Promega Corporation, Madison, WI USA), the luminescence value was recorded using SpectraMax M5 Multi-Mode Microplate Readers (Molecular Devices, LLC, Sunnyvale, CA USA). Concentration response curves were generated on GraphPad Prism (GraphPad Software, La Jolla, CA USA) by calculating the decrease in luminescence values in compound-treated samples relative to the DMSO controls.
(§3) Anti-proliferative effects of compounds were evaluated in human colorectal cancer HCT-15 cells (mutation: KRAS, PIK3CA), human hepatocellular carcinoma SNU-449 (mutation: TP53, CDKN2A), SNU-398 (mutation: CTNNB 1), SNU-182 (mutation: TP53) and renal adenocarcinoma 786-O (mutation: VHL, PTEN, TP53, CDKN2A) in 72 h after compound treatment.

786-O = test: Cell viability assay (CellTiter-Glo), 786-O; type: cell-based, human
Description: as §1, §2, §3

HCT-15 = test: Cell viability assay (CellTiter-Glo), HCT-15; type: cell-based, human; settings: for EC50: 72 h after compound treatment
Description: as §1, §2, §3

SNU-182 = test: Cell viability assay (CellTiter-Glo), SNU-182; type: cell-based, human; settings: for EC50: 72 h after compound treatment; for inhibition at 10 µM: read-out: % inhibition at 10 μM SNU-182, 10 μM
Description: as §1, §2, §3

[2] = tested on: mTORC1 and mTORC2 downstream signaling (pS6, p4E-BP1, pAkt S473); test: Downstream signaling of mTOR by immunoblotting, dose dependence, HCT-15 and SNU-449 cells; type: cell-based, human; settings: immunoblot at 3 h after compound treatment
Description: Downstream signaling of mTOR was tested using an immunoblotting method at 3 h after compound treatment.

SNU-449 = test: Cell viability assay (CellTiter-Glo), SNU-449; settings: for EC50: read-out: EC50 (nM) SNU-449; for inhibition at 10 µM: SNU-449, read-out: % inhibition at 10 μM SNU-449
Description: as §1, §2, §3

mTOR = mTOR (Homo sapiens, UniProt P42345); test: Potency of the ASi mTOR inhibition; type: biochemical
[3] = tested on: mTORC1 and mTORC2 signaling (pS6, p4E-BP1, pAkt S473); test: Time-course effects on mTORC1 and mTORC2 signaling in SNU-449; type: cell-based, human; settings: 0.33-24 h
Description: Cellular Signaling Effects of Class mTOR Inhibitors. Cells were seeded in 60 mm cell culture dishes and incubated 1-2 days until 70-90% confluency. Cells were treated with compound solution in DMSO (1000×) and incubated at 37° C. in a 5% CO2 humidified incubator for a given length of time. Whole cell lysates were prepared using RIPA buffer (R^3792) (TEKnova, Hollister, CA USA) with a phosphatase inhibitor cocktail tablet PhosStop and a protease inhibitor cocktail tablet cOmplete Mini (Roche Diagnostics GmbH, Mannheim, Germany). Cell lysates (based on a certain amount of protein determined by Pierce BCA Protein Assay Kit (PI-23225) (Thermo Fisher Scientific Inc., Waltham, MA USA)) were electrophoresed using a Criterion Tris-HCl gel 4-20% (Bio-Rad Laboratories, Hercules, CA USA) and transferred to a nitrocellulose membrane (162-0115) (Bio-Rad Laboratories, Hercules, CA USA). After incubation for more than 1 h with a blocking buffer at room temperature, membranes were labeled with primary antibodies by overnight incubation at 4° C., followed by 1 hour incubation with horseradish peroxidase-conjugated (HRP-conjugated) secondary antibodies at room temperature. The following antibodies were used for immunoblot: phospho-Akt (S473) (#9271), phospho-Akt (T308) (#2965), total-Akt (#9272), phospho-S6 (Ser240/Ser244) (#2215L), S6 ribosomal protein (#2217), phospho-4E-BP1 (T37/T46) (#2855), total 4E-BP1 (#9644) (Cell Signaling Technology, Inc., Danvers, MA USA), FKBP12 (sc-28814) mouse β-actin (sc-8432) (Santa Cruz Biotechnology, Inc., Dallas, Texas USA), anti-rabbit IgG conjugated with horseradish peroxidase (HRP) (#7074), and anti-mouse IgG conjugated with HRP (#7076) (Cell Signaling Technology, Inc., Danvers, MA USA). Nitrocellulose membranes were exposed with SuperSignal® West Pico Chemiluminescent Substrate or Femto Maximum Sensitivity Substrate (Thermo Fisher Scientific Inc., Waltham, MA USA) and signals were recorded on a CL-Xposure film (Thermo Fisher Scientific Inc., Waltham, MA USA).

[4] = tested on: TORC1 and TORC2 outputs (p4E-BP1, pS6); test: Drug washout experiment in SNU-449 cells; type: cell-based, human; settings: 30 nM for 3 h, then washout
Description: Cellular Signaling Effects of Class mTOR Inhibitors. Cells were seeded in 60 mm cell culture dishes and incubated 1-2 days until 70-90% confluency. Cells were treated with compound solution in DMSO (1000×) and incubated at 37° C. in a 5% CO2 humidified incubator for a given length of time. […] After incubation for more than 1 h with a blocking buffer at room temperature, membranes were labeled with primary antibodies by overnight incubation at 4° C., followed by 1 hour incubation with horseradish peroxidase-conjugated (HRP-conjugated) secondary antibodies at room temperature. […] Nitrocellulose membranes were exposed with SuperSignal® West Pico Chemiluminescent Substrate or Femto Maximum Sensitivity Substrate (Thermo Fisher Scientific Inc., Waltham, MA USA) and signals were recorded on a CL-Xposure film (Thermo Fisher Scientific Inc., Waltham, MA USA).
Drug Washout Experiment. SNU-449 cells were treated with 30 nM of compounds for 3 h. The medium was aspirated out and cells were washed with fresh 10% FBS in RPMI1640 medium. Then, cells were incubated with fresh 10% FBS in RPMI1640 medium at 37° C. for described time period.

[5] = Effect on blood glucose level in mice; settings: mice (n=3), intraperitoneal, Rapamycin treatment group (5 mg/kg, FIG. 10)
Description: Effect on blood glucose level. […] Blood glucose levels (mg/dL) were monitored.

## COc1ccc2[nH]c(-c3nn(CCCCNC(=O)CCOCCOCCOCCOCCOCCOCCOCCOCCn4cc(COCCO[C@@H]5CC[C@@H](C[C@@H](C)[C@@H]6CC(=O)[C@H](C)/C=C(\C)[C@@H](O)[C@@H](OC)C(=O)[C@H](C)C[C@H](C)/C=C/C=C/C=C(\C)[C@@H](OC)C[C@@H]7CC[C@@H](C)[C@@](O)(O7)C(=O)C(=O)N7CCCC[C@H]7C(=O)O6)C[C@H]5OC)nn4)c4ncnc(N)c34)cc2c1 [Compound E1010]
[1]
  inhibition of P-4EBP1: little or no inhibition
  inhibition of pS6 (S240/244): inhibition
  mTORC1 inhibition: only partially inhibits mTORC1

## COC1CC2CCC(C)C(O)(O2)C(=O)C(=O)N2CCCCC2C(=O)OC(C(C)CC2CCC(OCCOCc3cn(CCOCCOCCOCCOCCOCCOCCOCCNC(=O)CCCCn4nc(-c5ccc6oc(N)nc6c5)c5c(N)ncnc54)nn3)C(OC)C2)CC(=O)C(C)C=C(C)C(O)C(OC)C(=O)C(C)CC(C)C=CC=CC=C1C (stereo not shown) [Compound M-1111, 40-O-(2-((1-(29-(4-amino-3-(2-aminobenzo[d]oxazol-5-yl)-1H-pyrazolo[3,4-d]pyrimidin-1-yl)-25-oxo-3,6,9,12,15,18,21-heptaoxa-24-azanonacosyl)-1H-1,2,3-triazol-4-yl)methoxy)ethyl)-rapamycin]
SNU-398; 10 μM
  % inhibition at 10 μM SNU-398: +++ (50% < +++ ≤ 100%)
SNU-398
  EC50: < 10 nM
786-O; 10 μM
  % inhibition at 10 μM 786-O: +++ (50% < +++ ≤ 100%)
786-O; 72 h after compound treatment
  EC50: 10 to 50 nM
HCT-15; 10 μM
  % inhibition at 10 μM HCT-15: +++ (50% < +++ ≤ 100%)
HCT-15
  EC50: 10 to 50 nM
SNU-182; 10 μM
  % inhibition at 10 μM SNU-182: ++ (25% < ++ ≤ 50%)
SNU-182
  EC50: < 10 nM
[2]
  mTORC1/2 downstream inhibition (pS6, p4E-BP1 and pAkt S473): stronger inhibition of mTORC1 signaling (pS6 and p4E-BP1) compared to mTORC2 downstream Akt S473 phosphorylation
  p4E-BP1 inhibition: complete p4E-BP1 inhibition at drug concentrations in which pAkt S473 is not inhibited
SNU-449; 10 μM, SNU-449
  % inhibition at 10 μM SNU-449: ++ (25% < ++ ≤ 50%)
SNU-449; SNU-449, 72 h after compound treatment
  EC50: < 10 nM

## CO[C@H]1C[C@@H]2CC[C@@H](C)[C@@](O)(O2)C(=O)C(=O)N2CCCC[C@H]2C(=O)O[C@H]([C@H](C)C[C@@H]2CC[C@@H](OCCOCc3cn(CCCCn4nc(-c5ccc6oc(N)nc6c5)c5c(N)ncnc54)nn3)[C@H](OC)C2)CC(=O)[C@H](C)/C=C(\C)[C@@H](O)[C@@H](OC)C(=O)[C@H](C)C[C@H](C)/C=C/C=C/C=C/1C [Compound M-1115, 40-O-(2-((1-(4-(4-amino-3-(2-aminobenzo[d]oxazol-5-yl)-^1H-pyrazolo[3,4-d]pyrimidin-1-yl)butyl)-1H-1,2,3-triazol-4-yl)methoxy)ethyl)-rapamycin]
SNU-398; Homo sapiens
  EC50: 10 to 50 nM
786-O; Homo sapiens, 786-0, 72 h after compound treatment
  EC50: > 100 nM
HCT-15; Homo sapiens
  EC50: > 100 nM
SNU-182; Homo sapiens
  EC50: 10 to 50 nM
[2]
  p4E-BP1 inhibition: weaker p4E-BP1 inhibition
SNU-449; Homo sapiens, SNU-449, 72 h
  EC50: > 100 nM

## CO[C@H]1C[C@@H]2CC[C@@H](C)[C@@](O)(O2)C(=O)C(=O)N2CCCC[C@H]2C(=O)O[C@H]([C@H](C)C[C@@H]2CC[C@@H](OCCOCc3cn(CCOCCOCCOCCOCCC(=O)NCCCCn4nc(-c5ccc6oc(N)nc6c5)c5c(N)ncnc54)nn3)[C@H](OC)C2)CC(=O)[C@H](C)/C=C(\C)[C@@H](O)[C@@H](OC)C(=O)[C@H](C)C[C@H](C)/C=C/C=C/C=C/1C [Compound M-3059, 40-O-(2-((1-(20-(4-amino-3-(2-aminobenzo[d]oxazol-5-yl)-1H-pyrazolo[3,4-d]pyrimidin-1-yl)-15-oxo-3,6,9,12-tetraoxa-16-azaicosyl)-1H-1,2,3-triazol-4-yl)methoxy)ethyl)-rapamycin]
SNU-398; Homo sapiens
  inhibition at 10 µM: 50 to 100%
SNU-182; Homo sapiens
  inhibition at 10 µM: < 25%
SNU-449; Homo sapiens
  inhibition at 10 µM: < 25%

## COc1ccc2[nH]c(-c3nn(C(C)C)c4ncnc(N)c34)cc2c1 [MeO-PP242]
mTOR
  IC50: > 10000 nM

## CO[C@H]1C[C@@H]2CC[C@@H](C)[C@@](O)(O2)C(=O)C(=O)N2CCCC[C@H]2C(=O)O[C@H]([C@H](C)C[C@@H]2CC[C@@H](O)[C@H](OC)C2)CC(=O)[C@H](C)/C=C(\C)[C@@H](O)[C@@H](OC)C(=O)[C@H](C)C[C@H](C)/C=C/C=C/C=C/1C [Rapamycin, (3 S,6R,7E,9R,10R,12R,14S,15E,17E,19E,21S,23 S,26R,27R,34aS)-9,10,12,13,14,21,22,23,24,25,26,27,32,33,34,34a-hexadecahydro-9,27-dihydroxy-3-[(1R)-2-[(1S,3R,4R)-4-hydroxy-3-methoxycyclohexyl]-1-methylethyl]-10,21-dimethoxy-6,8,12,14,20,26-hexamethyl-23,27-epoxy-3H-pyrido[2,1-c][1,4]-oxaazacyclohentriacontine-1,5,11,28,29(4H,6H,31H)-pentone, reference compound]
SNU-398; Homo sapiens
  inhibition at 10 µM: 25 to 50%
786-O; Homo sapiens, 786-0, read-out: % inhibition at 10 μM 786-O, 10 μM
  inhibition at 10 µM: < 25%
HCT-15; Homo sapiens, read-out: % inhibition at 10 μM HCT-15, 10 μM
  inhibition at 10 µM: 25 to 50%
SNU-182; Homo sapiens
  inhibition at 10 µM: < 25%
[3]
  p4E-BP1 inhibition, time course: moderate inhibitory activity
  phosphorylation of Akt S473, time course: transient feedback activation on Akt S473 at 1 and 3 h, and then a slight inhibition was observed at 24 h
[4]
  maintenance of effects after washout: maintained longer after washout compared to asTORi
[5]
  blood glucose level: no increase in blood glucose levels
SNU-449; Homo sapiens
  inhibition at 10 µM: < 25%
